Molecular target: T1, human β-secretase (Homo sapiens, UniProt P56817)
T1 construct: The soluble part of the human β-secretase (AA 1-AA 460) was cloned; made in house
Experiment: TR-FRET assay (β-secretase enzyme, sBACE-Fc)
Type: biochemical
Conditions: read-out: IC50 in TR-FRET assay
Description: The enzyme used in the IGEN Cleavage-, Fluorescent-, TR-FRET- and BiaCore assays is described as follows:
The soluble part of the human β-secretase (AA 1-AA 460) was cloned into the ASP2-F10-1-IRES-GFP-neoK mammalian expression vector. The gene was fused to the Fc domain of IgG1 (affinity tag) and stably cloned into HEK 293 cells. Purified sBACE-Fc is stored in Tris buffer, pH 9.2 and has a purity of 95%.
Enzyme was diluted to 6 μg/mL and the substrate (Europium)[…](Qsy7) to 200 nM in reaction buffer (NaAcetate, chaps, triton x-100, EDTA pH 4.5). Compounds were diluted to the desired concentration in dimethyl sulfoxide (final dimethyl sulfoxide concentration in assay is 5%). […] Enzyme (9 μL) and 1 μL of compound in dimethyl sulfoxide was added to the plate, mixed and pre-incubated for 10 min. Substrate (10 μL) was added and the reaction proceeded in the dark for 15 min at RT. The reaction was stopped with the addition of 7 μL NaAcetate, pH 9. […] The dimethyl sulfoxide control defined the 100% activity level and 0% activity was defined by exclusion of the enzyme (using reaction buffer instead).

T1 sequence (P56817 22-460): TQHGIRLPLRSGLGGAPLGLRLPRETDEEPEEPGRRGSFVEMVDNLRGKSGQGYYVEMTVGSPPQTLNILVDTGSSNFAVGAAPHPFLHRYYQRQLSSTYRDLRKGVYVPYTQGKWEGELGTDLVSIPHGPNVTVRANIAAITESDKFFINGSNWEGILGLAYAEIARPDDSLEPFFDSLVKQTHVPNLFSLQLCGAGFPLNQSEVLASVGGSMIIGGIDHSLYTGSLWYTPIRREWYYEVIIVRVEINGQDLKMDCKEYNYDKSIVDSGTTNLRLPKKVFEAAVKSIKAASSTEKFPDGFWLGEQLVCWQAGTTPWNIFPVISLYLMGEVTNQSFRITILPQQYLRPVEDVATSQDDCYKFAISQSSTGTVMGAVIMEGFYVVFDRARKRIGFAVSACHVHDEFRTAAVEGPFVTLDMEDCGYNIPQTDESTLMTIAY

Q: NC1=NC(c2cccc(OS(=O)(=O)C(F)(F)F)c2)(c2cccc(-c3cccc(Cl)c3)c2)C2=NCCCN12 (stereo not drawn) [Example 115, 3-[6-Amino-8-(3′-chlorobiphenyl-3-yl)-2,3,4,8-tetrahydroimidazo[1,5-a]pyrimidin-8-yl]phenyl trifluoromethanesulfonate] was tested. Which IC50 did it give?
A: 106 nM

Q: Which IC50 does the source give for CS(=O)(=O)Oc1cccc(C2(c3cccc(-c4cc(Cl)cc(Cl)c4)c3)N=C(N)N3CCCN=C32)c1 (stereo not drawn) [Example 116, 3-[6-Amino-8-(3′,5′-dichlorobiphenyl-3-yl)-2,3,4,8-tetrahydroimidazo[1,5-a]pyrimidin-8-yl]phenyl methanesulfonate] here?
A: 285 nM

Q: How did the IC50 turn out when CS(=O)(=O)Oc1cccc(C2(c3cccc(-c4cccc(Cl)c4)c3)N=C(N)N3CCCN=C32)c1 (stereo not drawn) [Example 117, 3-[6-Amino-8-(3′-chlorobiphenyl-3-yl)-2,3,4,8-tetrahydroimidazo[1,5-a]pyrimidin-8-yl]phenyl methanesulfonate] was run?
A: 252 nM

Q: Which IC50 does the source give for COc1cccc(-c2cccc(C3(c4cccc(OS(C)(=O)=O)c4)N=C(N)N4CCCN=C43)c2)c1 (stereo not drawn) [Example 118, 3-[6-Amino-8-(3′-methoxybiphenyl-3-yl)-2,3,4,8-tetrahydroimidazo[1,5-a]pyrimidin-8-yl]phenyl methanesulfonate] here?
A: 645 nM

Q: How did the IC50 turn out when CS(=O)(=O)Oc1cccc(C2(c3cccc(-c4cccnc4)c3)N=C(N)N3CCCN=C32)c1 (stereo not drawn) [Example 119, 3-[6-Amino-8-(3-pyridin-3-ylphenyl)-2,3,4,8-tetrahydroimidazo[1,5-a]pyrimidin-8-yl]phenyl methanesulfonate] was run?
A: 754 nM

Q: For CS(=O)(=O)Oc1cccc(C2(c3cccc(-c4cncnc4)c3)N=C(N)N3CCCN=C32)c1 (stereo not drawn) [Example 120, 3-[6-Amino-8-(3-pyrimidin-5-ylphenyl)-2,3,4,8-tetrahydroimidazo[1,5-a]pyrimidin-8-yl]phenyl methanesulfonate], which IC50 is on record?
A: 272 nM

Q: With CS(=O)(=O)Oc1cccc(C2(c3cccc(-c4cc(Cl)cnc4F)c3)N=C(N)N3CCCN=C32)c1 (stereo not drawn) [Example 121, 3-{6-Amino-8-[3-(5-chloro-2-fluoropyridin-3-yl)phenyl]-2,3,4,8-tetrahydroimidazo[1,5-a]pyrimidin-8-yl}phenyl methanesulfonate] as the compound, how does the IC50 read?
A: 893 nM

Q: How did the IC50 turn out when Cc1cc(C)cc(-c2cccc(C3(c4cccc(OS(C)(=O)=O)c4)N=C(N)N4CCCN=C43)c2)c1 (stereo not drawn) [Example 122, 3-[6-Amino-8-(3′,5′-dimethylbiphenyl-3-yl)-2,3,4,8-tetrahydroimidazo[1,5-a]pyrimidin-8-yl]phenyl methanesulfonate] was run?
A: 69 nM

Q: With CCCS(=O)(=O)Oc1cccc(C2(c3cccc(-c4cc(Cl)cc(Cl)c4)c3)N=C(N)N3CCCN=C32)c1 (stereo not drawn) [Example 123, 3-[6-Amino-8-(3′,5′-dichlorobiphenyl-3-yl)-2,3,4,8-tetrahydroimidazo[1,5-a]pyrimidin-8-yl]phenyl propane-1-sulfonate] as the compound, how does the IC50 read?
A: 106 nM

Q: With CCCS(=O)(=O)Oc1cccc(C2(c3cccc(-c4cccc(OC)c4)c3)N=C(N)N3CCCN=C32)c1 (stereo not drawn) [Example 124, 3-[6-Amino-8-(3′-methoxybiphenyl-3-yl)-2,3,4,8-tetrahydroimidazo[1,5-a]pyrimidin-8-yl]phenyl propane-1-sulfonate] as the compound, how does the IC50 read?
A: 528 nM

Q: Which IC50 does the source give for CCCS(=O)(=O)Oc1cccc(C2(c3cccc(-c4cncnc4)c3)N=C(N)N3CCCN=C32)c1 (stereo not drawn) [Example 125, 3-[6-Amino-8-(3-pyrimidin-5-ylphenyl)-2,3,4,8-tetrahydroimidazo[1,5-a]pyrimidin-8-yl]phenyl propane-1-sulfonate] here?
A: 51 nM

Q: With NC1=NC(c2cccc(OS(=O)(=O)C3CC3)c2)(c2cccc(-c3cc(Cl)cc(Cl)c3)c2)C2=NCCCN12 (stereo not drawn) [Example 126, 3-[6-Amino-8-(3′,5′-dichlorobiphenyl-3-yl)-2,3,4,8-tetrahydroimidazo[1,5-a]pyrimidin-8-yl]phenyl cyclopropanesulfonate] as the compound, how does the IC50 read?
A: 156 nM

Q: With COc1cccc(-c2cccc(C3(c4cccc(OS(=O)(=O)C5CC5)c4)N=C(N)N4CCCN=C43)c2)c1 (stereo not drawn) [Example 127, 3-[6-Amino-8-(3′-methoxybiphenyl-3-yl)-2,3,4,8-tetrahydroimidazo[1,5-a]pyrimidin-8-yl]phenyl cyclopropanesulfonate] as the compound, how does the IC50 read?
A: 177 nM

Q: With NC1=NC(c2cccc(OS(=O)(=O)C(F)(F)F)c2)(c2cccc(-c3cc(Cl)cc(Cl)c3)c2)C2=NCCCN12 (stereo not drawn) [Example 128, 3-[6-Amino-8-(3′,5′-dichlorobiphenyl-3-yl)-2,3,4,8-tetrahydroimidazo[1,5-a]pyrimidin-8-yl]phenyl trifluoromethanesulfonate] as the compound, how does the IC50 read?
A: 214 nM

Q: How did the IC50 turn out when COc1cccc(-c2cccc(C3(c4cccc(OS(=O)(=O)C(F)(F)F)c4)N=C(N)N4CCCN=C43)c2)c1 (stereo not drawn) [Example 129, 3-[6-Amino-8-(3′-methoxybiphenyl-3-yl)-2,3,4,8-tetrahydroimidazo[1,5-a]pyrimidin-8-yl]phenyl trifluoromethanesulfonate] was run?
A: 464 nM

Q: For NC1=NC(c2cccc(OS(=O)(=O)C(F)(F)F)c2)(c2cccc(-c3cccnc3)c2)C2=NCCCN12 (stereo not drawn) [Example 130, 3-[6-Amino-8-(3-pyridin-3-ylphenyl)-2,3,4,8-tetrahydroimidazo[1,5-a]pyrimidin-8-yl]phenyl trifluoromethanesulfonate], which IC50 is on record?
A: 137 nM

Q: Which IC50 does the source give for NC1=NC(c2cccc(OS(=O)(=O)C(F)(F)F)c2)(c2cccc(-c3cc(Cl)cnc3F)c2)C2=NCCCN12 (stereo not drawn) [Example 131, 3-{6-Amino-8-[3-(5-chloro-2-fluoropyridin-3-yl)phenyl]-2,3,4,8-tetrahydroimidazo[1,5-a]pyrimidin-8-yl}phenyl trifluoromethanesulfonate] here?
A: 538 nM

Q: NC1=NC(c2cccc(OS(=O)(=O)C(F)(F)F)c2)(c2cccc(-c3cncnc3)c2)C2=NCCCN12 (stereo not drawn) [Example 132, 3-[6-Amino-8-(3-pyrimidin-5-ylphenyl)-2,3,4,8-tetrahydroimidazo[1,5-a]pyrimidin-8-yl]phenyl trifluoromethanesulfonate] was tested. Which IC50 did it give?
A: 375 nM

Q: How did the IC50 turn out when COc1cc(OS(C)(=O)=O)cc(-c2cccc(C3(c4cccc(OC)c4)N=C(N)N4CCCN=C43)c2)c1 (stereo not drawn) [Example 133, 3′-[6-Amino-8-(3-methoxyphenyl)-2,3,4,8-tetrahydroimidazo[1,5-a]pyrimidin-8-yl]-5-methoxybiphenyl-3-yl methanesulfonate] was run?
A: 375 nM

Q: Which IC50 does the source give for CN(C)C(=O)c1cccc(C2(c3cccc(-c4cccnc4F)c3)N=C(N)N3CC(F)(F)CN=C32)c1 (stereo not drawn) [Example 145, 3-{6-Amino-3,3-difluoro-8-[3-(2-fluoropyridin-3-yl)phenyl]-2,3,4,8-tetrahydroimidazo[1,5-a]pyrimidin-8-yl}-N,N-dimethylbenzamide] here?
A: 224 nM

Q: CN(C)C(=O)c1ccc(C2(c3cccc(-c4cccnc4F)c3)N=C(N)N3CC(F)(F)CN=C32)cc1 (stereo not drawn) [Example 146, 4-{6-Amino-3,3-difluoro-8-[3-(2-fluoropyridin-3-yl)phenyl]-2,3,4,8-tetrahydroimidazo[1,5-a]pyrimidin-8-yl}-N,N-dimethylbenzamide] was tested. Which IC50 did it give?
A: 214 nM

— patent US20080051420A1, “New Compounds 317” (AstraZeneca AB, priority 2006, published 2008)
